Organism: Rattus norvegicus
Assay: Open TG-GATES - Regimen: Single
Format: toxicity, organism-based, Sprague-Dawley
Set-up: regimen Single, gender Male, age 6 weeks
Conditions: in vivo, po, 0 mg/kg, route gavage, dose level Control; for APTT / Bas / Eos / Fbg / Hb / Ht / Lym / MCH / MCHC / MCV / Mono / Neu / PT / Plat / RBC / Ret / WBC: tissue Blood; for KIDNEY_L / KIDNEY_R / KIDNEY_TOTAL: tissue Kidney; for LIVER: tissue Liver; for A/G / ALP / ALT / AST / BUN / CRE / Ca / Cl / DBIL / GLC / IP / K / LDH / Na / PL / RALB / TBIL / TC / TG / TP / gamma-GTP: tissue Plasma

O=c1ccc2ccccc2o1 [COUMARIN]
TERMINAL_BW (3 h): 182.8 g
APTT (3 h): 16.6 s
Bas (3 h): 0%
Eos (3 h): 0.6%
Fbg (3 h): 205.4 mg/dL
Hb (3 h): 13.5 g/dL
Ht (3 h): 40%
Lym (3 h): 83.8%
MCH (3 h): 22.1 pg
MCHC (3 h): 33.6%
MCV (3 h): 65.8 fL
Mono (3 h): 4.8%
Neu (3 h): 11%
PT (3 h): 12.3 s
Plat (3 h): 106.1 x10_4/uL
RBC (3 h): 608.6 x10_4/ul
Ret (3 h): 8.9%
WBC (3 h): 102.6 x10_2/uL
KIDNEY_L (3 h): 0.8 g
KIDNEY_R (3 h): 0.8 g
KIDNEY_TOTAL (3 h): 1.7 g
LIVER (3 h): 8.4 g
A/G (3 h): 2.1
ALP (3 h): 1014.2 IU/L
ALT (3 h): 43 IU/L
AST (3 h): 69.4 IU/L
BUN (3 h): 11.2 mg/dL
CRE (3 h): 0.5 mg/dL
Ca (3 h): 10.9 mg/dL
Cl (3 h): 104.8 meq/L
DBIL (3 h): 0.026 mg/dL
GLC (3 h): 189.4 mg/dL
IP (3 h): 10.7 mg/dL
K (3 h): 4.7 meq/L
LDH (3 h): 76.6 IU/L
Na (3 h): 138.6 meq/L
PL (3 h): 158.2 mg/dL
RALB (3 h): 4 g/dL
TBIL (3 h): 0.3 mg/dL
TC (3 h): 81.4 mg/dL
TG (3 h): 99.4 mg/dL
TP (3 h): 5.8 g/dL
gamma-GTP (3 h): 1.6 IU/L
TERMINAL_BW (6 h): 179.5 g
APTT (6 h): 16.3 s
Bas (6 h): 0%
Eos (6 h): 0.8%
Fbg (6 h): 205.8 mg/dL
Hb (6 h): 13.5 g/dL
Ht (6 h): 40.4%
Lym (6 h): 75.4%
MCH (6 h): 21.8 pg
MCHC (6 h): 33.4%
MCV (6 h): 65.4 fL
Mono (6 h): 7.8%
Neu (6 h): 16.6%
PT (6 h): 12.4 s
Plat (6 h): 108.2 x10_4/uL
RBC (6 h): 617.2 x10_4/ul
Ret (6 h): 9.3%
WBC (6 h): 115.3 x10_2/uL
KIDNEY_L (6 h): 0.8 g
KIDNEY_R (6 h): 0.9 g
KIDNEY_TOTAL (6 h): 1.7 g
LIVER (6 h): 7.7 g
A/G (6 h): 2.1
ALP (6 h): 982 IU/L
ALT (6 h): 36.4 IU/L
AST (6 h): 66.6 IU/L
BUN (6 h): 11.4 mg/dL
CRE (6 h): 0.5 mg/dL
Ca (6 h): 10.4 mg/dL
Cl (6 h): 107.8 meq/L
DBIL (6 h): 0.002 mg/dL
GLC (6 h): 184.6 mg/dL
IP (6 h): 11.3 mg/dL
K (6 h): 5.4 meq/L
LDH (6 h): 96.8 IU/L
Na (6 h): 139.4 meq/L
PL (6 h): 144.4 mg/dL
RALB (6 h): 3.8 g/dL
TBIL (6 h): 0.3 mg/dL
TC (6 h): 82 mg/dL
TG (6 h): 52.2 mg/dL
TP (6 h): 5.6 g/dL
gamma-GTP (6 h): 1.4 IU/L
TERMINAL_BW (9 h): 180 g
APTT (9 h): 16 s
Bas (9 h): 0%
Eos (9 h): 0.8%
Fbg (9 h): 206.8 mg/dL
Hb (9 h): 13.1 g/dL
Ht (9 h): 39.4%
Lym (9 h): 79.2%
MCH (9 h): 21.9 pg
MCHC (9 h): 33.3%
MCV (9 h): 65.9 fL
Mono (9 h): 6.4%
Neu (9 h): 14%
PT (9 h): 12.4 s
Plat (9 h): 117.4 x10_4/uL
RBC (9 h): 598.6 x10_4/ul
Ret (9 h): 9.2%
WBC (9 h): 106.8 x10_2/uL
KIDNEY_L (9 h): 0.9 g
KIDNEY_R (9 h): 0.9 g
KIDNEY_TOTAL (9 h): 1.7 g
LIVER (9 h): 7.4 g
A/G (9 h): 2.1
ALP (9 h): 975.8 IU/L
ALT (9 h): 31.2 IU/L
AST (9 h): 59.4 IU/L
BUN (9 h): 12.4 mg/dL
CRE (9 h): 0.5 mg/dL
Ca (9 h): 10.7 mg/dL
Cl (9 h): 106 meq/L
DBIL (9 h): 0.022 mg/dL
GLC (9 h): 190.8 mg/dL
IP (9 h): 11 mg/dL
K (9 h): 5.1 meq/L
LDH (9 h): 82.2 IU/L
Na (9 h): 138.2 meq/L
PL (9 h): 139 mg/dL
RALB (9 h): 3.7 g/dL
TBIL (9 h): 0.3 mg/dL
TC (9 h): 79.4 mg/dL
TG (9 h): 36.6 mg/dL
TP (9 h): 5.5 g/dL
gamma-GTP (9 h): 1.6 IU/L
TERMINAL_BW (24 h): 191.8 g
APTT (24 h): 16.1 s
Bas (24 h): 0%
Eos (24 h): 0.8%
Fbg (24 h): 205.4 mg/dL
Hb (24 h): 13.2 g/dL
Ht (24 h): 39.3%
Lym (24 h): 77.2%
MCH (24 h): 21.8 pg
MCHC (24 h): 33.4%
MCV (24 h): 65.1 fL
Mono (24 h): 8.8%
Neu (24 h): 13.6%
PT (24 h): 12.5 s
Plat (24 h): 106.5 x10_4/uL
RBC (24 h): 604.2 x10_4/ul
Ret (24 h): 8.3%
WBC (24 h): 132 x10_2/uL
KIDNEY_L (24 h): 0.9 g
KIDNEY_R (24 h): 0.9 g
KIDNEY_TOTAL (24 h): 1.8 g
LIVER (24 h): 9 g
A/G (24 h): 1.9
ALP (24 h): 985.2 IU/L
ALT (24 h): 37 IU/L
AST (24 h): 64.4 IU/L
BUN (24 h): 16.2 mg/dL
CRE (24 h): 0.5 mg/dL
Ca (24 h): 10.8 mg/dL
Cl (24 h): 105.4 meq/L
DBIL (24 h): 0 mg/dL
GLC (24 h): 184.4 mg/dL
IP (24 h): 7.9 mg/dL
K (24 h): 5.5 meq/L
LDH (24 h): 92.6 IU/L
Na (24 h): 137.8 meq/L
PL (24 h): 138 mg/dL
RALB (24 h): 3.7 g/dL
TBIL (24 h): 0.3 mg/dL
TC (24 h): 76 mg/dL
TG (24 h): 82.8 mg/dL
TP (24 h): 5.6 g/dL
gamma-GTP (24 h): 1.2 IU/L
